# Measurements from PubChem BioAssay AID200 (DTP/NCI, 2004).
# “And” between values parts separate entries of the source, which are not always exact repeats. Identical values can stand only once. Inconclusive results and toxic doses are left out.
# Test system: B6C3F1 mice, B16 melanoma ip, median survival T/C
# Experiment: NCI In Vivo Anticancer Drug Screen. Data for tumor model B16 Melanoma (intraperitoneal) in B6C3F1 mice
# Conditions: endpoint: median survival time, schedule: Q01DX009 (ip), higher = longer survival
# Method in brief: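 Values are T/C ratios: the measurement in treated animals divided by that in vehicle-treated controls, using survival or tumor size in mice carrying transplantable tumors.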
# [1] = dose: 12.5 mg/kg/injection, vehicle: Klucel (hydroxypropylcellulose) (HPC)
# [2] = dose: 25.0 mg/kg/injection, vehicle: Klucel (hydroxypropylcellulose) (HPC)
# [3] = dose: 50.0 mg/kg/injection, vehicle: Klucel (hydroxypropylcellulose) (HPC)
# [4] = dose: 25.0 mg/kg/injection, vehicle: saline with Tween-80
# [5] = dose: 50.0 mg/kg/injection, vehicle: saline with Tween-80
# [6] = dose: 100.0 mg/kg/injection, vehicle: saline with Tween-80
# [7] = dose: 200.0 mg/kg/injection, vehicle: saline with Tween-80
# [8] = dose: 25.0 mg/kg/injection, vehicle: saline
# [9] = dose: 50.0 mg/kg/injection, vehicle: saline
# [10] = dose: 75.0 mg/kg/injection, vehicle: saline
# [11] = dose: 100.0 mg/kg/injection, vehicle: saline
# [12] = dose: 150.0 mg/kg/injection, vehicle: saline
# [13] = dose: 200.0 mg/kg/injection, vehicle: saline
# [14] = dose: 400.0 mg/kg/injection, vehicle: saline
# [15] = dose: 6.25 mg/kg/injection, vehicle: saline
# [16] = dose: 12.5 mg/kg/injection, vehicle: saline
# [17] = dose: 12.5 mg/kg/injection, vehicle: saline with Tween-80
smiles,measurement,setting,value
CCCCCCCOc1ccc(C(=O)O)cc1,T/C,[1],106 % of control
same,T/C,[2],108 % of control
same,T/C,[3],114 % of control
NC(=O)c1ncn(C2OC(CO)C(O)C2O)c1O (stereo not drawn),T/C,[1],102 % of control and 106 % of control
same,T/C,[2],102 % of control and 107 % of control
same,T/C,[3],98 % of control and 107 % of control
same,T/C,"dose: 100.0 mg/kg/injection, vehicle: Klucel (hydroxypropylcellulose) (HPC)",96 % of control and 106 % of control
same,T/C,"dose: 200.0 mg/kg/injection, vehicle: Klucel (hydroxypropylcellulose) (HPC)",97 % of control and 102 % of control
same,T/C,"dose: 400.0 mg/kg/injection, vehicle: Klucel (hydroxypropylcellulose) (HPC)",90 % of control
O=C(Oc1ccccc1)c1cc(O)c(O)c(O)c1,T/C,[4],98 % of control
same,T/C,[5],97 % of control
same,T/C,[6],97 % of control
same,T/C,[7],87 % of control
CCCCCCCCCCS(=O)CC(CO)NC(=O)/C=C/c1c(C)[nH]c(=O)[nH]c1=O (stereo not drawn),T/C,"dose: 0.37 mg/kg/injection, vehicle: distilled water + Tween-80",106 % of control
same,T/C,"dose: 0.37 mg/kg/injection, vehicle: water",106 % of control
same,T/C,"dose: 0.75 mg/kg/injection, vehicle: distilled water + Tween-80",95 % of control
same,T/C,"dose: 0.75 mg/kg/injection, vehicle: water",106 % of control
same,T/C,"dose: 1.5 mg/kg/injection, vehicle: distilled water + Tween-80",94 % of control
same,T/C,"dose: 1.5 mg/kg/injection, vehicle: water",108 % of control
same,T/C,"dose: 3.0 mg/kg/injection, vehicle: distilled water + Tween-80",100 % of control
same,T/C,"dose: 3.0 mg/kg/injection, vehicle: water",117 % of control
same,T/C,"dose: 6.0 mg/kg/injection, vehicle: distilled water + Tween-80",109 % of control
same,T/C,"dose: 6.0 mg/kg/injection, vehicle: water",114 % of control
CCCCCC[C@@H](O)C/C=C\CCCCCCCC(=O)OCCO,T/C,[8],101 % of control
same,T/C,[9],110 % of control
same,T/C,[10],102 % of control
same,T/C,[11],122 % of control
same,T/C,[12],97 % of control
same,T/C,[13],101 % of control
same,T/C,"dose: 300.0 mg/kg/injection, vehicle: saline",100 % of control
same,T/C,[14],103 % of control
same,T/C,"dose: 600.0 mg/kg/injection, vehicle: saline",95 % of control
same,T/C,"dose: 800.0 mg/kg/injection, vehicle: saline",96 % of control
same,T/C,"dose: 1200.0 mg/kg/injection, vehicle: saline",96 % of control
O=C/C(Cl)=C(/Cl)C(=O)O,T/C,"dose: 1.25 mg/kg/injection, vehicle: saline with Tween-80",99 % of control
same,T/C,"dose: 2.5 mg/kg/injection, vehicle: saline with Tween-80",86 % of control
same,T/C,"dose: 5.0 mg/kg/injection, vehicle: saline with Tween-80",89 % of control
same,T/C,"dose: 10.0 mg/kg/injection, vehicle: saline with Tween-80",92 % of control
same,T/C,"dose: 20.0 mg/kg/injection, vehicle: saline with Tween-80",102 % of control
CCC/C(=N/NC(N)=O)C(OC)OC,T/C,"dose: 37.5 mg/kg/injection, vehicle: saline",110 % of control
same,T/C,[10],98 % of control
same,T/C,[12],106 % of control
O=C(/C=C(\Cl)C(=O)NO)NO,T/C,[15],100 % of control and 105 % of control
same,T/C,[16],91 % of control and 100 % of control
same,T/C,[8],97 % of control and 104 % of control
same,T/C,[9],108 % of control
same,T/C,[11],91 % of control
Nc1nc2ncc(CNc3ccc(C(=O)NC(CCC(=O)O)C(=O)O)cc3)nc2c(=O)[nH]1 (stereo not drawn),T/C,[15],96 % of control
same,T/C,[16],91 % of control
same,T/C,[8],108 % of control
same,T/C,[9],96 % of control
same,T/C,[11],101 % of control
COC1/C=C/C=C(/C)Cc2cc(O)c(Cl)c(c2)N(C)C(=O)CC(OC(=O)C(C)C)C2(C)OC2C(C)C2CC1(O)NC(=O)O2 (stereo not drawn),T/C,"dose: 0.25 mg/kg/injection, vehicle: saline + alcohol",155 % of control
same,T/C,"dose: 0.5 mg/kg/injection, vehicle: saline + alcohol",150 % of control
same,T/C,"dose: 25.0 micrograms/kg/injection, vehicle: saline + alcohol",120 % of control
same,T/C,"dose: 400.0 micrograms/kg/injection, vehicle: saline + alcohol",151 % of control
NC(N)=O,T/C,[9],99 % of control
same,T/C,[11],100 % of control
same,T/C,[13],106 % of control
same,T/C,[14],95 % of control
Nc1nc(-c2ccc(S(=O)(=O)O)cc2)cc(=O)[nH]1,T/C,"dose: 3.31 mg/kg/injection, vehicle: saline",100 % of control
same,T/C,"dose: 6.62 mg/kg/injection, vehicle: saline",105 % of control
same,T/C,"dose: 13.25 mg/kg/injection, vehicle: saline",105 % of control
same,T/C,"dose: 26.5 mg/kg/injection, vehicle: saline",96 % of control and 104 % of control
same,T/C,"dose: 53.0 mg/kg/injection, vehicle: saline",104 % of control
same,T/C,"dose: 106.0 mg/kg/injection, vehicle: saline",110 % of control
CC(=Nc1ccccc1)C1=C(O)C(Cc2ccccc2)NC1=O (stereo not drawn),T/C,"dose: 3.13 mg/kg/injection, vehicle: saline with Tween-80",113 % of control
same,T/C,"dose: 6.25 mg/kg/injection, vehicle: saline with Tween-80",121 % of control
same,T/C,[17],115 % of control and 103 % of control
same,T/C,[4],119 % of control and 103 % of control
same,T/C,[5],113 % of control
NC(CS)C(=O)O (stereo not drawn),T/C,[9],93 % of control and 104 % of control
same,T/C,[6],107 % of control
same,T/C,[11],93 % of control and 103 % of control
same,T/C,[7],109 % of control
same,T/C,[13],93 % of control
same,T/C,"dose: 400.0 mg/kg/injection, vehicle: saline with Tween-80",107 % of control
same,T/C,[14],116 % of control and 92 % of control
same,T/C,"dose: 800.0 mg/kg/injection, vehicle: saline with Tween-80",100 % of control
CC(C)(C)N1CC1CNC(=O)C(=O)NCC1CN1C(C)(C)C (stereo not drawn),T/C,"dose: 0.78 mg/kg/injection, vehicle: saline with Tween-80",99 % of control
same,T/C,"dose: 1.56 mg/kg/injection, vehicle: saline with Tween-80",101 % of control
same,T/C,"dose: 3.12 mg/kg/injection, vehicle: saline with Tween-80",109 % of control
same,T/C,[17],150 % of control
CC(C)CC1C(=O)N2CCCC2C2(O)OC(NC(=O)C3C=C4c5cccc6[nH]cc(c56)CC4N(C)C3)(C(C)C)C(=O)N12 (stereo not drawn),T/C,"dose: 2.5 mg/kg/injection, vehicle: Klucel (hydroxypropylcellulose) (HPC)",120 % of control
same,T/C,"dose: 5.0 mg/kg/injection, vehicle: Klucel (hydroxypropylcellulose) (HPC)",111 % of control
same,T/C,"dose: 10.0 mg/kg/injection, vehicle: Klucel (hydroxypropylcellulose) (HPC)",109 % of control
same,T/C,"dose: 20.0 mg/kg/injection, vehicle: Klucel (hydroxypropylcellulose) (HPC)",98 % of control
same,T/C,"dose: 40.0 mg/kg/injection, vehicle: Klucel (hydroxypropylcellulose) (HPC)",105 % of control
